Holding throughout (format): in vivo, human
Test [1] relates to patients known to give positive skin test to penicillin derivatives. As to the kind of experiment: Intradermal skin test with BPO-amines and other penicillin allergy skin test materials (Table II). The conditions noted are these: for Intensity of reactions in patients: patient alpha / Skin test reaction of patient four, in words: patient four; for Skin test reaction of patient four, in words: text summary of Table II; for Intensity of reactions in patients: patient iota: patient nine; for Intensity of reactions in patients: patient epsilon: patient seven; for Intensity of reactions in patients: delta: patient six; for Intensity of reactions in patients: theta: patient two; for Intensity of reactions in patients: patient zeta: patient one; for Intensity of reactions in patients: beta: patient three; for Intensity of reactions in patients: patient gamma: patient eight. The text has this: Benzylpenicillin (PG) was 1.0×10^-2 M in 0.11M saline.
Sodium benzylpenicilloate plus sodium benzylpenilloate (P/P) was 1.0×10^-2 M of each dissolved in phosphate buffered saline at pH 7.5.
Benzylpenicilloyl-amine (BPO-amine) was 1.0×10^-2 M concentration phosphate buffered saline at pH 7.5.
Benzylpenicilloyl-n-propyl amine and benzylpenicilloyl-n-ethyl amine (as α-diastereoisomers) were each dissolved to 1.0×10^-2 M concentration in phosphate buffered saline at pH 7.5.
They were healthy men and women ranging in age from 23 to 56 years. Ten people negative to the skin test materials served as controls.
Using 1.0 ml tuberculin syringes with #26 needles and intradermal bevels, 0.01 ml volumes of the test materials were injected intradermally into the anterior-lateral aspects of the arms. Skin tests were read in 15 minutes. A negative reaction is the poorly outlined bleb of fluid --1-3 mm in diameter without surrounding erythema. Positive tests were sharply outlined wheals of 4-20 mm diameter with surrounding erythema. The positive tests were graded as 1+,2+,3+ and 4+ on the basis of wheal diameter. 1+=4-6 mm; 2+=7-9 mm; 3+=10-12 mm; and 4+=more than 13 mm with pseudopods. […] Skin tests were done in duplicate.

The test system of test [2] is patients allergic to penicillin. Briefly: Prick skin test with B8 L8 solution. The conditions noted are these: Patient No. 1; B8 L8 1×10^-6 molar in tris-buffered saline pH 8.2. As for the experimental part:
(§1) The B8 L8 stock solution was diluted to 1×10^-6 molar in tris-buffered saline with a pH of 8.2, also containing ethylenediaminetetraceticacid (2×10^-4 molar) for stability. The composition was then used in skin testing. The tests were conducted by both the prick test and intradermal test methods, and the results were as follows:
Patient No. 1--prick test--B8 L8 =2+.

Test [3] has the same test system. Briefly: Intradermal skin test with B8 L8 solution. As to conditions: Patient No. 2; B8 L8 1×10^-6 molar in tris-buffered saline pH 8.2. As for the experimental part: as §1
Patient No. 2--intradermal test--the B8 L8 gave a 10 mm wheal and rated from 2+ to 3+ in intensity.

The mark [4] stands for this setting: intradermal 0.01 ml, read in 15 minutes, BPL 1 × 10^-6 M, other materials 1 × 10^-2 M.

Take `CCNC(=O)C(NC(=O)Cc1ccccc1)C1NC(C(=O)O)C(C)(C)S1` (centres unmarked) [BPO-ethyl amine, benzylpenicilloyl-n-ethyl amine]: in test [1] (setting [4]), the “Intensity of reactions in patients: patient alpha” value (“Intensity … patient alpha” for short) was 2+ (2+=7-9 mm), the “Intensity of reactions in patients: patient iota” value (from here on “Intensity … patient iota”) is reported as 0 (A negative reaction is the poorly outlined bleb of fluid --1-3 mm in diameter without surrounding erythema), the “Intensity of reactions in patients: patient epsilon” value (“Intensity … patient epsilon” below) was “trace” and the “Intensity of reactions in patients: delta” value (from here on “Intensity … delta”) is 0 (A negative reaction is the poorly outlined bleb of fluid --1-3 mm in diameter without surrounding erythema). In addition, the “Intensity of reactions in patients: theta” value in test [1] (setting [4]) was 3+ (3+=10-12 mm). Moreover, the “Skin test reaction of patient four, in words” value in test [1] is reported as “positive reaction”.

In the case of `CCCNC(=O)[C@@H](NC(=O)Cc1ccccc1)[C@@H]1N[C@@H](C(=O)O)C(C)(C)S1` [BPO-propyl amine, Benzylpenicilloyl-n-propyl amine], in test [1], the “Skin test reaction of patient four, in words” value is listed as “positive reaction”. Besides, in test [1] (setting [4]), the “Intensity … patient iota” value is 1+ (1+=4-6 mm), the “Intensity of reactions in patients: patient zeta” value is given as 1 - 2°, the “Intensity … patient epsilon” value is “trace” and the “Intensity … delta” value is 0 (A negative reaction is the poorly outlined bleb of fluid --1-3 mm in diameter without surrounding erythema). Also, in test [1] (setting [4]), the “Intensity of reactions in patients: beta” value is recorded as 2+ (2+=7-9 mm).

On to `CC1(C)S[C@@H]2[C@H](NC(=O)Cc3ccccc3)C(=O)N2[C@H]1C(=O)O` [PG, Benzylpenicillin], for which, in test [1] (setting [4]), the “Intensity of reactions in patients: patient gamma” value is 0 (A negative reaction is the poorly outlined bleb of fluid --1-3 mm in diameter without surrounding erythema), the “Intensity … patient alpha” value is given as 0 (A negative reaction is the poorly outlined bleb of fluid --1-3 mm in diameter without surrounding erythema), the “Intensity … patient iota” value was “trace” and the “Intensity of reactions in patients: patient zeta” value is 2+ (2+=7-9 mm). Moreover, in test [1] (setting [4]), the “Intensity … patient epsilon” value was “trace”, the “Intensity … delta” value is listed as 0 (A negative reaction is the poorly outlined bleb of fluid --1-3 mm in diameter without surrounding erythema), the “Intensity of reactions in patients: beta” value is 1+ (1+=4-6 mm) and the “Intensity of reactions in patients: theta” value is listed as 2+ (2+=7-9 mm). Also, the “Intensity of reactions in patients: patient eta” value in test [1] (patient five, intradermal 0.01 ml, read in 15 minutes, BPL 1 × 10^-6 M, other materials 1 × 10^-2 M) is reported as 0 (A negative reaction is the poorly outlined bleb of fluid --1-3 mm in diameter without surrounding erythema).

“Benzylpenicilloyl8 -Poly-L-Lysine8 [B8 L8]”: in test [2], the “Prick test reaction intensity” value is on record as 2+ (2+=7-9 mm) and the “Size of the wheal (diameter), prick test” value is recorded as 4-5 mm. Moreover, in test [3], the “Wheal, intradermal test” value was 10 mm.

Turning to Benzylpenicilloyl-amine [BPO-amine], in test [1] (setting [4]), the “Intensity of reactions in patients: patient gamma” value was 1+ (1+=4-6 mm), the “Intensity … patient alpha” value is on record as 1+ (1+=4-6 mm), the “Intensity … patient iota” value was 2+ (2+=7-9 mm) and the “Intensity … patient epsilon” value is on record as “trace”. The “Intensity … delta” value in test [1] (setting [4]) is 0 (A negative reaction is the poorly outlined bleb of fluid --1-3 mm in diameter without surrounding erythema).

The record behind these values is US4183910A, “Method for testing to predict and/or diagnose allergy to penicillins, and compounds and compositions for use in such tests” (priority 1978, dated 1980).
